ChEMBL document CHEMBL1121794, “Octanol-physiological buffer distribution coefficients of lipophilic amines by reversed-phase high-performance liquid chromatography and their correlation with biological activity” (J Med Chem, 1981)

Assays:
[1] = octanol/water
Description: Partition coefficient (logD, measured by HPLC, log k')

[2] = not given; remark: listed apart in the source
[3] = not given; remark: listed apart in the source
[4] = not given; remark: listed apart in the source
[5] = not given; remark: listed apart in the source
[6] = not given; remark: listed apart in the source
[7] = (§1) Partition coefficient (logD7.4); details: octanol/water, pH 7.4
[8] = not given; remark: listed apart in the source
physchem [9] = details: octanol/water, pH 7.4
[10] = not given; remark: listed apart in the source
[11] = as §1; details: octanol/water, pH 7.4; remark: listed apart in the source
[12] = not given; remark: listed apart in the source
[13] = not given; remark: listed apart in the source
[14] = not given; remark: listed apart in the source
[15] = not given; remark: listed apart in the source
[16] = not given; remark: listed apart in the source
[17] = not given; remark: listed apart in the source
physchem [18] = details: octanol/water
physchem [19] = details: octanol/water; remark: listed apart in the source
[20] = as §1; type: physicochemical; details: octanol/water, pH 7.4
Rattus norvegicus [21] = species: Rattus norvegicus
Rattus norvegicus [22] = species: Rattus norvegicus; remark: listed apart in the source
Description: Apparent partition coefficient was measured as histamine releasing activity in rat mast cells.

[23] = (§2) logD (measured by HPLC) (as log k'); type: ADME
[24] = not given; remark: listed apart in the source
[25] = biological target: Serum albumin (Bos taurus) (UniProt P02769); assay: BSA binding (log K)
[26] = (§3) Partition coefficient (logD) (HPLC); type: physicochemical; details: octanol/water
[27] = as §3; type: physicochemical; details: octanol/water; remark: listed apart in the source
[28] = as §2; type: ADME; remark: listed apart in the source
[29] = not given; remark: listed apart in the source
[30] = as §2; type: ADME; remark: listed apart in the source

| Compound | Log k' [1] | Log k' [2] | Log k' [4] | Log k' [5] | Log k' [6] | Log k' [8] | logD (physchem [9]) | Log k' [10] | logD [11] | Log k' [12] | Log k' [13] | Log k' [14] | Log k' [15] | Log k' [16] | Log k' [17] | logD (physchem [18]) | logD (physchem [19]) | other results |
| --- | --- | --- | --- | --- | --- | --- | --- | --- | --- | --- | --- | --- | --- | --- | --- | --- | --- | --- |
| c1ccccc1 [BENZENE] | 0.874 | – | – | – | – | – | – | – | – | – | – | – | – | – | – | – | – | – |
| CN(C)CCCN1c2ccccc2CCc2ccccc21 [IMIPRAMINE] | 1.194 | 0.806 | 0.934 | – | – | – | – | – | – | – | – | – | – | – | – | – | – | Log k': 1.145; Log k' [3]: 1.227 |
| O=C(NC1CCN(CCc2c[nH]c3ccccc23)CC1)c1ccccc1 [INDORAMIN] | 0.858 | 0.348 | 0.413 | 1.049 | 0.536 | 0.136 | 2.28 | 0.297 | 2.313 | -0.055 | – | – | – | – | – | – | – | Log k': 0.536; logD [7]: 2.27; Log k' [3]: 1.028 |
| c1ccc2nc3ccccc3cc2c1 [ACRIDINE] | 1.993 | – | – | 2.146 | – | – | – | 1.501 | 3.29 | – | 1.556 | 1.447 | 2.103 | 0.685 | 0.775 | – | – | – |
| Cc1cccc(C)c1NC(=O)C1CCCCN1C (stereo not given) [MEPIVACAINE] | -0.098 | – | – | 0.051 | – | – | – | -0.564 | 1.27 | – | -0.429 | 0.008 | 0.008 | -0.492 | -0.462 | 1.22 | 1.26 | – |
| COc1ccccc1N1CCN(CCCC(=O)c2ccc(F)cc2)CC1 [FLUANISONE] | 1.448 | – | – | 1.669 | – | – | – | 0.996 | 2.93 | – | 1.175 | 1.64 | 1.64 | 1.063 | 0.805 | – | – | – |
| CN(C)CCC=C1c2ccccc2COc2ccccc21 [DOXEPIN] | 1.044 | 0.642 | 0.778 | 1.115 | 1.025 | 0.886 | 2.2 | 0.632 | 2.22 | 0.33 | – | – | – | – | – | 2.36 | 2.32 | Log k': 1.025; logD [20]: 2.22; Log k' [3]: 1.086 |
| CNCCC=C1c2ccccc2CCc2ccccc21 [NORTRIPTYLINE] | 1.162 | – | – | – | – | 0.899 | – | – | 1.98 | 0.349 | – | – | – | – | – | 2.04 | 2.01 | pKa [7]: 9.73; Log 1/ED50 (Rattus norvegicus [21]): 1.76; Papp (Rattus norvegicus [22]): 1.8 |
| CN(C)CCCN1c2ccccc2Sc2ccc(Cl)cc21 [CHLORPROMAZINE] | 2.061 | 1.667 | 1.751 | 2.144 | 1.911 | 1.632 | 3.17 | 1.656 | 3.221 | 1.086 | – | – | – | – | – | – | – | Log k' [23]: 1.911; Log k' [24]: 2.144; Papp (Rattus norvegicus [22]): 2.92 |
| CN(C)CCCN1c2ccccc2Sc2ccccc21 [PROMAZINE] | 1.378 | 0.907 | 1.117 | 1.351 | 1.465 | 1.252 | 2.54 | 0.927 | 2.48 | 0.505 | – | – | – | – | – | – | – | Log k' [23]: 1.47; pKa [7]: 9.42; Log k' [3]: 1.345; Log K [25]: 3.21; Log 1/ED50 (Rattus norvegicus [21]): 2.05; Papp (Rattus norvegicus [22]): 2.15 |
| CCCCOc1cc(C(=O)NCCN(CC)CC)c2ccccc2n1 [DIBUCAINE] | 1.588 | – | – | 1.651 | – | – | – | 1.064 | 2.91 | – | 1.215 | 1.11 | 1.642 | 0.501 | 0.915 | – | – | – |
| CCC(=O)O[C@](Cc1ccccc1)(c1ccccc1)[C@H](C)CN(C)C [PROPOXYPHENE] | 1.124 | – | – | 1.263 | 0.656 | – | – | – | 2.36 | – | 0.795 | 0.769 | 1.259 | 0.483 | 0.673 | – | – | – |
| CN1CCC(=C2c3ccccc3C=Cc3ccccc32)CC1 [CYPROHEPTADINE] | 1.853 | 1.529 | 1.527 | 1.999 | 1.715 | 1.43 | 3.14 | 1.516 | 3.11 | 1.037 | – | – | – | – | – | – | – | Log k': 1.715; Log k' [3]: 1.984 |
| CN1CCCCC1CCN1c2ccccc2Sc2ccc([S+](C)[O-])cc21 (stereo not given) [MESORIDAZINE] | 1.045 | – | – | – | – | – | – | – | 1.8 | – | 0.923 | – | – | – | – | 1.84 | 1.78 | – |
| CN1CCN(CCCN2c3ccccc3Sc3ccc(Cl)cc32)CC1 [PROCHLORPERAZINE] | – | – | – | – | – | – | – | – | – | – | – | – | 2.767 | 1.571 | 1.907 | – | – | Log k' [23]: 2.292; pKa [7]: 8.1; BSA binding [25]: 3.83; Log 1/ED50 (Rattus norvegicus [21]): 2.75; Papp (Rattus norvegicus [22]): 2.4 |
| Clc1ccccc1 [CHLOROBENZENE] | – | – | – | 1.631 | – | – | – | 1.027 | 2.87 | – | – | 1.61 | 1.61 | 1.022 | 0.773 | – | – | logD [26]: 1.56; logD [27]: 1.05 |
| O=[N+]([O-])c1ccccc1 [NITROBENZENE] | 0.564 | – | – | – | – | – | – | – | 1.88 | – | – | – | – | – | – | – | – | – |
| CN(C)CCC(c1ccc(Cl)cc1)c1ccccn1 (stereo not given) [CHLORPHENIRAMINE] | – | – | – | 0.273 | – | – | – | 0.007 | 1.38 | – | – | 0.074 | 0.262 | -0.329 | 0.334 | 1.53 | 1.51 | logD [26]: 0.466; logD [27]: 0.466 |
| CCN(CC)CCOc1ccc2c(c1)C(=O)c1cc(OCCN(CC)CC)ccc1-2 [TILORONE] | 0.183 | – | 0.325 | 0.234 | 0.701 | – | 1.31 | 0.007 | 1.47 | – | – | – | – | – | – | 1.44 | 1.48 | Log k' [28]: -0.412; Log k': 0.701; Log k' [29]: 0.113; logD [20]: 1.47; Log k' [24]: 0.229; Log k' [30]: 0.051 |
| CN1CCN(C2=Nc3cc(Cl)ccc3Nc3ccccc32)CC1 [CLOZAPINE] | – | – | – | 1.734 | – | 1.15 | – | 1.136 | 2.99 | 0.817 | – | 1.725 | 1.73 | – | – | – | – | logD [26]: 1.66; logD [27]: 1.4 |
